Consider 15 molecules from ChEMBL document CHEMBL1136023, “Antifungal Sordarins. Part 4: synthesis and structure--activity relationships of 3',4'-fused alkyl-tetrahydrofuran derivatives” (2002).

≈ marks a conversion by molar mass, not a printed value.

Common to all, as to assay type: functional
The test system of assay [1] is Candida albicans. The experiment in a line: Minimal inhibitory effect against the Candida albicans (4711E).
The subject of the next assay is Kluyveromyces marxianus. The assay can be described thus: Minimal inhibitory effect against the Candida pseudotropicalis (2371E).
The next assay relates to Aspergillus flavus. The experiment in a line: Minimal inhibitory effect against the Aspergillus flavus (C1150).
The test system of assay [2] is Candida albicans. The assay can be described thus: Minimal inhibitory effect against the Candida albicans (2005E).
The subject of the next assay is Nakaseomyces glabratus. The assay can be described thus: Minimal inhibitory effect against the Candida glabrata (2375E).
For the next assay, the system named is Candida parapsilosis. The assay can be described thus: Minimal inhibitory effect against the Candida parapsilosis (2372E). Particulars: Lodderomyces parapsilosis.
The next assay deals with Cryptococcus neoformans. The experiment in a line: Minimal inhibitory effect against the Cryptococcus neoformans (2867E).
A further assay has as its system Candida tropicalis. The assay can be described thus: Minimal inhibitory effect against the Candida tropicalis (2808E).

Usually MIC stands for the lowest concentration found to suppress growth. Regarding `CC(C)C1=CC2CC3(C=O)[C@@H]4CC[C@@H](C)[C@H]4CC2(CO[C@H]2C[C@H]4[C@H](OC[C@@H]4C)[C@@H](C)O2)C13C(=O)O` (stereo partly specified), the minimal inhibitory concentration (MIC) in the assay with Candida albicans [1] was less than 0.001 µg/mL; in the assay with Kluyveromyces marxianus, 0.004 µg/mL (≈ 0.00822 µM); in the assay on Aspergillus flavus, 62 µg/mL (≈ 127 µM); in the assay with Candida albicans [2], less than 0.001 µg/mL; with Nakaseomyces glabratus it was 0.5 µg/mL (≈ 1.03 µM); in the assay on Candida parapsilosis, 2 µg/mL (≈ 4.11 µM). The MIC against Cryptococcus neoformans is 0.25 µg/mL (≈ 0.514 µM); against Candida tropicalis, 0.008 µg/mL (≈ 0.0164 µM).

With `OC(Cn1cncn1)(Cn1cncn1)c1ccc(F)cc1F` [FLUCONAZOLE], the MIC is 0.12 µg/mL (≈ 0.392 µM) in the assay on Candida albicans [1], 4 µg/mL (≈ 13.1 µM) with Nakaseomyces glabratus, 0.5 µg/mL (≈ 1.63 µM) in the assay with Candida parapsilosis and 2 µg/mL (≈ 6.53 µM) in the assay on Candida tropicalis.

As to `CC(C)C1=CC2CC3(C=O)[C@@H]4CC[C@@H](C)[C@H]4CC2(CO[C@H]2C[C@H]4[C@H](OC[C@H]4C)[C@@H](C)O2)C13C(=O)O` (stereo partly specified), the MIC against Candida albicans [1] is less than 0.001 µg/mL; in the assay on Kluyveromyces marxianus, 0.001 µg/mL (≈ 0.00205 µM); in the assay with Aspergillus flavus it was more than 125 µg/mL; against Candida albicans [2], 0.001 µg/mL (≈ 0.00205 µM); in the assay on Nakaseomyces glabratus, 4 µg/mL (≈ 8.22 µM); against Candida parapsilosis it was more than 125 µg/mL. The MIC stood at 4 µg/mL (≈ 8.22 µM) in the assay on Cryptococcus neoformans and 0.004 µg/mL (≈ 0.00822 µM) with Candida tropicalis.

For `CC(C)C1=CC2CC3(C=O)[C@@H]4CC[C@@H](C)[C@H]4CC2(CO[C@H]2C[C@@H]4OC[C@@H](C)[C@@H]4[C@@H](C)O2)C13C(=O)O` (stereo partly specified), the MIC in the assay with Candida albicans [1] was less than 0.001 µg/mL; in the assay on Kluyveromyces marxianus, less than 0.001 µg/mL; in the assay on Aspergillus flavus, more than 125 µg/mL; in the assay with Candida albicans [2], less than 0.001 µg/mL; with Nakaseomyces glabratus it was 8 µg/mL (≈ 16.4 µM); against Candida parapsilosis, more than 125 µg/mL. For the same molecule, the MIC worked out at 1 µg/mL (≈ 2.05 µM) in the assay with Cryptococcus neoformans and 0.008 µg/mL (≈ 0.0164 µM) against Candida tropicalis.

Take `CC[C@@H]1CO[C@H]2C1[C@H](O)[C@H](OCC13C[C@@H]4[C@H](C)CC[C@H]4C4(C=O)CC1C=C(C(C)C)C34C(=O)O)O[C@@H]2C` (single isomer, unassigned): the MIC in the assay on Candida albicans [1] is 0.12 µg/mL (≈ 0.232 µM); against Kluyveromyces marxianus, 0.06 µg/mL (≈ 0.116 µM); with Aspergillus flavus it was more than 125 µg/mL; in the assay with Candida albicans [2], 0.015 µg/mL (≈ 0.029 µM); against Nakaseomyces glabratus, 16 µg/mL (≈ 31 µM); against Candida parapsilosis it was 125 µg/mL (≈ 242 µM). Further, the MIC against Cryptococcus neoformans is less than 0.25 µg/mL; in the assay on Candida tropicalis it was 0.25 µg/mL (≈ 0.484 µM).

With `CC(C)C1=CC2CC3(C=O)[C@@H]4CC[C@@H](C)[C@H]4CC2(CO[C@H]2C[C@@H]4OC(C)(C)O[C@@H]4[C@@H](C)O2)C13C(=O)O` (stereo partly specified), the MIC against Candida albicans [1] is 0.004 µg/mL (≈ 0.00796 µM); against Kluyveromyces marxianus, 0.004 µg/mL (≈ 0.00796 µM); against Aspergillus flavus, more than 125 µg/mL; against Candida albicans [2] it was less than 0.001 µg/mL; with Nakaseomyces glabratus, 31 µg/mL (≈ 61.7 µM); against Candida parapsilosis it was more than 125 µg/mL. The MIC with Cryptococcus neoformans and against Candida tropicalis was 0.12 µg/mL (≈ 0.239 µM) throughout.

For `CC(C)C1=CC2CC3(C=O)[C@@H]4CC[C@@H](C)[C@H]4CC2(CO[C@H]2C[C@H]4[C@H](OCC4(C)C)[C@@H](C)O2)C13C(=O)O` (stereo partly specified), the minimal inhibitory concentration (MIC) was less than 0.001 µg/mL with Candida albicans [1]; less than 0.001 µg/mL against Kluyveromyces marxianus; more than 125 µg/mL in the assay with Aspergillus flavus; less than 0.001 µg/mL against Candida albicans [2]; 8 µg/mL (≈ 16 µM) in the assay on Nakaseomyces glabratus; more than 125 µg/mL in the assay with Candida parapsilosis. For the same molecule, the values for the MIC against Cryptococcus neoformans and in the assay on Candida tropicalis were 4 µg/mL (≈ 7.99 µM) and 0.06 µg/mL (≈ 0.12 µM), respectively.

As to `CC[C@H]1CO[C@H]2[C@@H]1C[C@H](OCC13C[C@@H]4[C@H](C)CC[C@H]4C4(C=O)CC1C=C(C(C)C)C34C(=O)O)O[C@@H]2C` (stereo partly specified), the MIC with Candida albicans [1] is less than 0.001 µg/mL; in the assay on Kluyveromyces marxianus it was less than 0.001 µg/mL; against Aspergillus flavus, 62 µg/mL (≈ 124 µM); with Candida albicans [2], less than 0.001 µg/mL; against Nakaseomyces glabratus, 0.5 µg/mL (≈ 0.999 µM); in the assay on Candida parapsilosis, 4 µg/mL (≈ 7.99 µM). Also, the MIC against Cryptococcus neoformans was less than 0.25 µg/mL; against Candida tropicalis, less than 0.001 µg/mL.

As for `CC(C)C1=CC2CC3(C=O)[C@@H]4CC[C@@H](C)[C@H]4CC2(CO[C@@H]2O[C@H](C)[C@H]4OC[C@H](C)C4[C@@H]2O)C13C(=O)O` (single isomer, unassigned), the MIC was 1 µg/mL (≈ 1.99 µM) in the assay with Candida albicans [1]; 1 µg/mL (≈ 1.99 µM) in the assay with Kluyveromyces marxianus; more than 125 µg/mL against Aspergillus flavus; 0.5 µg/mL (≈ 0.995 µM) against Candida albicans [2]; 31 µg/mL (≈ 61.7 µM) against Nakaseomyces glabratus; 125 µg/mL (≈ 249 µM) in the assay with Candida parapsilosis. For the same molecule, the figures for the MIC with Cryptococcus neoformans and against Candida tropicalis were 1 µg/mL (≈ 1.99 µM) and 2 µg/mL (≈ 3.98 µM), respectively.

On to `CC(C)C1=CC2CC3(C=O)[C@@H]4CC[C@@H](C)[C@H]4CC2(CO[C@H]2C[C@H]4[C@H](OC[C@@H]4C(C)C)[C@@H](C)O2)C13C(=O)O` (stereo partly specified), for which the MIC in the assay with Candida albicans [1] is less than 0.001 µg/mL; against Kluyveromyces marxianus, less than 0.001 µg/mL; against Aspergillus flavus it was more than 125 µg/mL; against Candida albicans [2], less than 0.001 µg/mL; against Nakaseomyces glabratus, 2 µg/mL (≈ 3.89 µM); with Candida parapsilosis it was 16 µg/mL (≈ 31.1 µM). Moreover, the MIC with Cryptococcus neoformans turned out to be 0.25 µg/mL (≈ 0.486 µM); in the assay on Candida tropicalis, 0.004 µg/mL (≈ 0.00777 µM).

As to `CC[C@H]1CO[C@H]2C1[C@H](O)[C@H](OCC13C[C@@H]4[C@H](C)CC[C@H]4C4(C=O)CC1C=C(C(C)C)C34C(=O)O)O[C@@H]2C` (single isomer, unassigned), the MIC with Candida albicans [1] was 0.12 µg/mL (≈ 0.232 µM); with Kluyveromyces marxianus, 0.06 µg/mL (≈ 0.116 µM); against Aspergillus flavus, more than 125 µg/mL; against Candida albicans [2] it was 0.03 µg/mL (≈ 0.0581 µM); against Nakaseomyces glabratus it was 8 µg/mL (≈ 15.5 µM); against Candida parapsilosis, 125 µg/mL (≈ 242 µM). The MIC against Cryptococcus neoformans is less than 0.25 µg/mL; in the assay with Candida tropicalis, 0.5 µg/mL (≈ 0.968 µM).

With `CC(C)C1=CC2CC3(C=O)[C@@H]4CC[C@@H](C)[C@H]4CC2(CO[C@@H]2O[C@H](C)[C@H]4OC[C@@H](C)C4[C@@H]2O)C13C(=O)O` (single isomer, unassigned), the MIC was 0.25 µg/mL (≈ 0.497 µM) in the assay on Candida albicans [1]; 0.25 µg/mL (≈ 0.497 µM) with Kluyveromyces marxianus; more than 125 µg/mL with Aspergillus flavus; 0.008 µg/mL (≈ 0.0159 µM) in the assay on Candida albicans [2]; 62 µg/mL (≈ 123 µM) with Nakaseomyces glabratus; 125 µg/mL (≈ 249 µM) in the assay on Candida parapsilosis. The figures for the MIC with Cryptococcus neoformans and against Candida tropicalis were 31 µg/mL (≈ 61.7 µM) and 0.5 µg/mL (≈ 0.995 µM), respectively.

Regarding `CC(C)C1=CC2CC3(C=O)[C@@H]4CC[C@@H](C)[C@H]4CC2(CO[C@H]2C[C@@H]4OC[C@H](C)[C@@H]4[C@@H](C)O2)C13C(=O)O` (stereo partly specified), the MIC against Candida albicans [1] was 0.004 µg/mL (≈ 0.00822 µM); in the assay on Kluyveromyces marxianus, less than 0.001 µg/mL; in the assay on Aspergillus flavus it was more than 125 µg/mL; with Candida albicans [2] it was 0.001 µg/mL (≈ 0.00205 µM); against Nakaseomyces glabratus, 16 µg/mL (≈ 32.9 µM); in the assay on Candida parapsilosis, more than 125 µg/mL. The MIC with Cryptococcus neoformans is 0.5 µg/mL (≈ 1.03 µM); against Candida tropicalis, 0.03 µg/mL (≈ 0.0616 µM).

Regarding `CC(C)C1=CC2CC3(C=O)[C@@H]4CC[C@@H](C)[C@H]4CC2(CO[C@H]2C[C@H]4[C@H](OC[C@H]4C(C)C)[C@@H](C)O2)C13C(=O)O` (stereo partly specified), the MIC was less than 0.001 µg/mL against Candida albicans [1]; less than 0.001 µg/mL with Kluyveromyces marxianus; more than 125 µg/mL against Aspergillus flavus; less than 0.001 µg/mL in the assay on Candida albicans [2]; 62 µg/mL (≈ 120 µM) against Nakaseomyces glabratus; more than 125 µg/mL against Candida parapsilosis. The minimal inhibitory concentration (MIC) against Cryptococcus neoformans worked out at 4 µg/mL (≈ 7.77 µM); against Candida tropicalis, 2 µg/mL (≈ 3.89 µM).

With `CC[C@@H]1CO[C@H]2[C@@H]1C[C@H](OCC13C[C@@H]4[C@H](C)CC[C@H]4C4(C=O)CC1C=C(C(C)C)C34C(=O)O)O[C@@H]2C` (stereo partly specified), the minimal inhibitory concentration (MIC) with Candida albicans [1] is less than 0.001 µg/mL; with Kluyveromyces marxianus, less than 0.001 µg/mL; with Aspergillus flavus, more than 125 µg/mL; in the assay with Candida albicans [2] it was less than 0.001 µg/mL; with Nakaseomyces glabratus, 4 µg/mL (≈ 7.99 µM); in the assay on Candida parapsilosis, more than 125 µg/mL. Moreover, the values for the MIC against Cryptococcus neoformans and in the assay on Candida tropicalis were 1 µg/mL (≈ 2 µM) and less than 0.001 µg/mL, respectively.
